Columns and labels:
Chenopodium album = experiment: greenhouse post-emergence herbicidal test; assay type: in vivo, Chenopodium album (lamb's-quarters); conditions: application rates of 0.25 or 0.125 kg/ha, 2 to 4 weeks
Description: (§1) The cultivation containers used were plastic flower pots containing loamy sand with approximately 3.0% of humus as the substrate. The seeds of the test plants were sown separately for each species.
(§2) For the post-emergence treatment, the test plants were first grown to a height of from 3 to 15 cm, depending on the plant habit, and only then treated with the active compounds which had been suspended or emulsified in water. The test plants were for this purpose either sown directly and grown in the same containers, or they were first grown separately as seedlings and transplanted into the test containers a few days prior to treatment. The application rate for the post-emergence treatment was 0.25 or 0.125 kg of a.s. (active substance)/ha.
(§3) Depending on the species, the plants were kept at 10-25° C. or 20-35° C. The test period extended over 2 to 4 weeks. During this time, the plants were tended, and their response to the individual treatments was evaluated.
(§4) The evaluation was carried out using a scale from 0 to 100. 100 means no emergence of the plants, or complete destruction of at least the aerial parts and 0 means no damage, or normal course of growth.
(§5) The plants used in the greenhouse experiments were of the following species: […]

Avena fatua = experiment: greenhouse post-emergence herbicidal test; assay type: in vivo, Avena fatua (wild oat); conditions: application rates of 0.25 or 0.125 kg/ha, 2 to 4 weeks
Description: as §1, §2, §3, §4, §5

Abutilon theophrasti = experiment: greenhouse post-emergence herbicidal test; assay type: in vivo, Abutilon theophrasti (velvet leaf); conditions: application rates of 0.25 or 0.125 kg/ha, 2 to 4 weeks
Description: as §1, §2, §3, §4, §5

Polygonum persicaria = experiment: greenhouse post-emergence herbicidal test; assay type: in vivo, Polygonum persicaria (lady's-thumb); conditions: application rates of 0.25 or 0.125 kg/ha, 2 to 4 weeks
Description: as §1, §2, §3, §4, §5

Brachiaria plantaginea = experiment: greenhouse post-emergence herbicidal test; assay type: in vivo, Brachiaria plantaginea (alexandergrass); conditions: application rates of 0.25 or 0.125 kg/ha, 2 to 4 weeks
Description: as §1, §2, §3, §4, §5

Echinochloa crus galli = experiment: greenhouse post-emergence herbicidal test; assay type: in vivo, Echinochloa crus galli (barnyardgrass); conditions: application rates of 0.25 or 0.125 kg/ha, 2 to 4 weeks
Description: as §1, §2, §3, §4, §5

SMILES | melting point | further results
Cc1c(C(=O)C2=C(O)CC(C)(C)CC2=O)ccc(S(C)(=O)=O)c1C1=NOC2CC12 (centres unmarked) [Compound 2.1] | 102 °C | post-emergence action (Chenopodium album): very good; post-emergence action (Avena fatua): very good; post-emergence action (Abutilon theophrasti): very good; post-emergence action (Polygonum persicaria): very good; post-emergence action (Brachiaria plantaginea): very good; post-emergence action (Echinochloa crus galli): very good
Cc1c(C(=O)C2=C(O)C(C)CC(C)C2=O)ccc(S(C)(=O)=O)c1C1=NOC2CC12 (centres unmarked) [Compound 2.3, 2-[2-Methyl-3-(2-oxa-3-azabicyclo[3.1.0]hex-3-en-4-yl)-4-methylsulfonylbenzoyl]-1-hydroxy-4,6-dimethylcyclohex-1-en-3-one] | 90 to 96 °C | 
CSC1(C)CCC(=O)C(C(=O)c2ccc(S(C)(=O)=O)c(C3=NOC4CC34)c2C)=C1O (centres unmarked) [Compound 2.5] | 100 to 106 °C | 
CC1(C)CC(=O)C(C(=O)c2ccc(S(C)(=O)=O)c(C3=NOC4CC34)c2Cl)=C(O)C1 (centres unmarked) [Compound 2.7] | 101 to 105 °C | 
Cc1c(C(=O)C2=C(O)CC(C)(C)CC2=O)ccc(S(C)(=O)=O)c1C1=NOC2(C)CC12 (centres unmarked) [Compound 2.8] | 112 to 120 °C | 
Cc1c(C(=O)C2=C(O)C(C)CC(C)C2=O)ccc(S(C)(=O)=O)c1C1=NOC2(C)CC12 (centres unmarked) [Compound 2.12] | 98 to 112 °C | 
Cc1c(C(=O)C2=C(O)CC(C)(C)CC2=O)ccc(S(C)(=O)=O)c1C1=NOC2CC12C (centres unmarked) [Compound 2.13] | 120 to 127 °C | 
Cc1c(C(=O)C2=C(O)C(C)(C)CCC2=O)ccc(S(C)(=O)=O)c1C1=NOC2(C)CC12 (centres unmarked) [Compound 2.14] | 120 to 130 °C | 

— patent publication US6667333B2, “Herbicidal 3-(4,5 dihydroisoxazole- 3 yl) substituted benzoycyclohexenone derivatives” (BASF Aktiengesellschaft, priority 1999, dated 2003)
